Measurements published in patent publication US20120245137A1 (Zalicus Pharmaceuticals Ltd., priority 2009, published 2012).
Read-outs that look alike come from different tables or passages of the source.

Columns and labels:
Format in all cases: cell-based
Human Cav 2.2 channels = Human Cav 2.2 channels (Homo sapiens, UniProt Q00975); experiment: Fluorescent assay for CaV2.2 channels using potassium depolarization (VIPR/FLIPR); details: FLIPR data; for CAv2.2 IC50 Ratio closed/inact.: ratio closed/inactivated IC50
In short: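 Fluo-4 calcium fluorescence (480/535 nm) was recorded on VIPR or FLIPR after depolarization to 70 mM final potassium. Before this, cells were preincubated 30 min at 25 °C with compound in 4–30 mM potassium, so that state-dependent block could be assessed; the cells were HEK293 coexpressing Cav2.2, α2δ, β and Kir2.3.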

CAv1.2 = CAv1.2 (Homo sapiens, UniProt Q13936); experiment: FLIPR data, CAv1.2 channel blocking (Table 6); details: for CAv1.2 IC50 Ratio closed/inact.: ratio closed/inactivated IC50
T-type calcium channel [1] = molecular target: T-type calcium channel (Homo sapiens, UniProt O43497); experiment: T-type channel blocking, FLIPR data (Table 6); details: CAv3.1
Text: (§1) Another method, high-throughput spectrophotometric assay, utilizes loading of the cell lines with a fluorescent dye sensitive to intracellular calcium concentration and subsequent examination of the effects of compounds on the ability of depolarization by potassium chloride or other means to alter intracellular calcium levels.

T-type calcium channel [2] = molecular target: T-type calcium channel (Homo sapiens, UniProt O95180); experiment: T-type channel blocking, FLIPR data (Table 6); details: for CAv3.2 IC50 Ratio closed/inact.: CAv3.2, ratio closed/inactivated IC50
Text: as §1

[3] = closed state, read-out: CAv2.2 IC50 Closed
[4] = inactivated state, read-out: CAv2.2 IC50 Inact.
[5] = closed state, read-out: CAv1.2 IC50 Closed
[6] = inactivated state, read-out: CAv1.2 IC50 Inact.
[7] = CAv3.2, closed state, read-out: CAv3.2 IC50 Closed
[8] = CAv3.2, inactivated state, read-out: CAv3.2 IC50 Inact.

Sequence of T-type calcium channel (Homo sapiens, UniProt O95180) (O95180 whole entry): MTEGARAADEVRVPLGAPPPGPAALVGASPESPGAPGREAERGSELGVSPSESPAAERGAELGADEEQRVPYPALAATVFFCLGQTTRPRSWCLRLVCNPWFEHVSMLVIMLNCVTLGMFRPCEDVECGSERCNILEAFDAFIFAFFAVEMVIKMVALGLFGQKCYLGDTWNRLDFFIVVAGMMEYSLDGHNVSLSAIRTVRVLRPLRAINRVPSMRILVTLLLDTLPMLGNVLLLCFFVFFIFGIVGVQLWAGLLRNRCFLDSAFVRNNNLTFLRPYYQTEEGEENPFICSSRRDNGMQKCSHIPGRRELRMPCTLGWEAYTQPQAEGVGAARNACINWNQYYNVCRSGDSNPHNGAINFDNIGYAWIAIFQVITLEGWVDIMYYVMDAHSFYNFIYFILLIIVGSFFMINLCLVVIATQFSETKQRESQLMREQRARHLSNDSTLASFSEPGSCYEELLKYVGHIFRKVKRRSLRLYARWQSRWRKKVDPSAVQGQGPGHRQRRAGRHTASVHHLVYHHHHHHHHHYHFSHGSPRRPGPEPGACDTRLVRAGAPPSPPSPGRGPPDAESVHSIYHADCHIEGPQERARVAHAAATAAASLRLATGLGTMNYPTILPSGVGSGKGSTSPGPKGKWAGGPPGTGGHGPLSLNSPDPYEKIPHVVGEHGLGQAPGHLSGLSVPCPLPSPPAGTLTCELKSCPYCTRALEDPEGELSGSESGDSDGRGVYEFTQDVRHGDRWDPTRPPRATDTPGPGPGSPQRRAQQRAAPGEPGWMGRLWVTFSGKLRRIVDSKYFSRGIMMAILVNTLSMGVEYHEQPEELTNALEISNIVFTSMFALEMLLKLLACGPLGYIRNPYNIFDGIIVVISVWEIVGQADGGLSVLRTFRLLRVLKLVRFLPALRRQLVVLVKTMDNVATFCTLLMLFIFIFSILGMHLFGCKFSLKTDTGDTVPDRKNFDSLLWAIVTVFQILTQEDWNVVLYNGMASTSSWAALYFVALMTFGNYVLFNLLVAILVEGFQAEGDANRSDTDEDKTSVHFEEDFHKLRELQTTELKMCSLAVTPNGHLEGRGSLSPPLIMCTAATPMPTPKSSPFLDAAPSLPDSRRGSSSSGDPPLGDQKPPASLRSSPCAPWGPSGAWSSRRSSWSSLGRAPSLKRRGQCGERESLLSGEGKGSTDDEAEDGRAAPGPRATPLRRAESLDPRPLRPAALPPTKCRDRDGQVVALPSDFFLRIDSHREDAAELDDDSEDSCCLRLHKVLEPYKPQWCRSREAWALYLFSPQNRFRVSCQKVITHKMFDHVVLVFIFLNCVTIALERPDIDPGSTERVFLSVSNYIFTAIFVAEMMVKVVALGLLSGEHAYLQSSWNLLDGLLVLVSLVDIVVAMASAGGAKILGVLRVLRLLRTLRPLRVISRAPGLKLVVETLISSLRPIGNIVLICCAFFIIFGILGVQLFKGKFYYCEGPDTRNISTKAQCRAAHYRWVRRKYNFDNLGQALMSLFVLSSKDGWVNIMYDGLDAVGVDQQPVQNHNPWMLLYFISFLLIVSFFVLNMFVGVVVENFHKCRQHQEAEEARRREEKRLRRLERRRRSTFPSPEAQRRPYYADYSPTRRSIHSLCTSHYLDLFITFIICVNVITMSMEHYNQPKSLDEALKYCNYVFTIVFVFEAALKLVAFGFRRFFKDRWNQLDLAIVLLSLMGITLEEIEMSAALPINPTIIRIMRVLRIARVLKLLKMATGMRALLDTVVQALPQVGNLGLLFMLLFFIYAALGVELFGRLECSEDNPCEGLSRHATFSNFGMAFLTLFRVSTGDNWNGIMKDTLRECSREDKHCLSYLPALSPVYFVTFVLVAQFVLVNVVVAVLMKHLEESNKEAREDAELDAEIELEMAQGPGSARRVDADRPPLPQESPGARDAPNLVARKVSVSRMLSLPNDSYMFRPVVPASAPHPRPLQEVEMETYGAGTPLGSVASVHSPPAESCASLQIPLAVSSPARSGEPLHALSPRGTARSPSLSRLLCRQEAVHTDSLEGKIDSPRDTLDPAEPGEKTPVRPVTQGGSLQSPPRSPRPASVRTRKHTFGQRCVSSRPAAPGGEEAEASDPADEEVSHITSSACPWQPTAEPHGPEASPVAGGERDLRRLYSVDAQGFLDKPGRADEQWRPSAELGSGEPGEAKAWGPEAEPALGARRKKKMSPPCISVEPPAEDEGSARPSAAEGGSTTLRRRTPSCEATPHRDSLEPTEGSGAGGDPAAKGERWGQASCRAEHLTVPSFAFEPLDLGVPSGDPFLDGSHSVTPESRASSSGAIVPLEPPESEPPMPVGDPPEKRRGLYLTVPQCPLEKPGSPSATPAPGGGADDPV
Sequence of T-type calcium channel (Homo sapiens, UniProt O43497) (O43497 whole entry): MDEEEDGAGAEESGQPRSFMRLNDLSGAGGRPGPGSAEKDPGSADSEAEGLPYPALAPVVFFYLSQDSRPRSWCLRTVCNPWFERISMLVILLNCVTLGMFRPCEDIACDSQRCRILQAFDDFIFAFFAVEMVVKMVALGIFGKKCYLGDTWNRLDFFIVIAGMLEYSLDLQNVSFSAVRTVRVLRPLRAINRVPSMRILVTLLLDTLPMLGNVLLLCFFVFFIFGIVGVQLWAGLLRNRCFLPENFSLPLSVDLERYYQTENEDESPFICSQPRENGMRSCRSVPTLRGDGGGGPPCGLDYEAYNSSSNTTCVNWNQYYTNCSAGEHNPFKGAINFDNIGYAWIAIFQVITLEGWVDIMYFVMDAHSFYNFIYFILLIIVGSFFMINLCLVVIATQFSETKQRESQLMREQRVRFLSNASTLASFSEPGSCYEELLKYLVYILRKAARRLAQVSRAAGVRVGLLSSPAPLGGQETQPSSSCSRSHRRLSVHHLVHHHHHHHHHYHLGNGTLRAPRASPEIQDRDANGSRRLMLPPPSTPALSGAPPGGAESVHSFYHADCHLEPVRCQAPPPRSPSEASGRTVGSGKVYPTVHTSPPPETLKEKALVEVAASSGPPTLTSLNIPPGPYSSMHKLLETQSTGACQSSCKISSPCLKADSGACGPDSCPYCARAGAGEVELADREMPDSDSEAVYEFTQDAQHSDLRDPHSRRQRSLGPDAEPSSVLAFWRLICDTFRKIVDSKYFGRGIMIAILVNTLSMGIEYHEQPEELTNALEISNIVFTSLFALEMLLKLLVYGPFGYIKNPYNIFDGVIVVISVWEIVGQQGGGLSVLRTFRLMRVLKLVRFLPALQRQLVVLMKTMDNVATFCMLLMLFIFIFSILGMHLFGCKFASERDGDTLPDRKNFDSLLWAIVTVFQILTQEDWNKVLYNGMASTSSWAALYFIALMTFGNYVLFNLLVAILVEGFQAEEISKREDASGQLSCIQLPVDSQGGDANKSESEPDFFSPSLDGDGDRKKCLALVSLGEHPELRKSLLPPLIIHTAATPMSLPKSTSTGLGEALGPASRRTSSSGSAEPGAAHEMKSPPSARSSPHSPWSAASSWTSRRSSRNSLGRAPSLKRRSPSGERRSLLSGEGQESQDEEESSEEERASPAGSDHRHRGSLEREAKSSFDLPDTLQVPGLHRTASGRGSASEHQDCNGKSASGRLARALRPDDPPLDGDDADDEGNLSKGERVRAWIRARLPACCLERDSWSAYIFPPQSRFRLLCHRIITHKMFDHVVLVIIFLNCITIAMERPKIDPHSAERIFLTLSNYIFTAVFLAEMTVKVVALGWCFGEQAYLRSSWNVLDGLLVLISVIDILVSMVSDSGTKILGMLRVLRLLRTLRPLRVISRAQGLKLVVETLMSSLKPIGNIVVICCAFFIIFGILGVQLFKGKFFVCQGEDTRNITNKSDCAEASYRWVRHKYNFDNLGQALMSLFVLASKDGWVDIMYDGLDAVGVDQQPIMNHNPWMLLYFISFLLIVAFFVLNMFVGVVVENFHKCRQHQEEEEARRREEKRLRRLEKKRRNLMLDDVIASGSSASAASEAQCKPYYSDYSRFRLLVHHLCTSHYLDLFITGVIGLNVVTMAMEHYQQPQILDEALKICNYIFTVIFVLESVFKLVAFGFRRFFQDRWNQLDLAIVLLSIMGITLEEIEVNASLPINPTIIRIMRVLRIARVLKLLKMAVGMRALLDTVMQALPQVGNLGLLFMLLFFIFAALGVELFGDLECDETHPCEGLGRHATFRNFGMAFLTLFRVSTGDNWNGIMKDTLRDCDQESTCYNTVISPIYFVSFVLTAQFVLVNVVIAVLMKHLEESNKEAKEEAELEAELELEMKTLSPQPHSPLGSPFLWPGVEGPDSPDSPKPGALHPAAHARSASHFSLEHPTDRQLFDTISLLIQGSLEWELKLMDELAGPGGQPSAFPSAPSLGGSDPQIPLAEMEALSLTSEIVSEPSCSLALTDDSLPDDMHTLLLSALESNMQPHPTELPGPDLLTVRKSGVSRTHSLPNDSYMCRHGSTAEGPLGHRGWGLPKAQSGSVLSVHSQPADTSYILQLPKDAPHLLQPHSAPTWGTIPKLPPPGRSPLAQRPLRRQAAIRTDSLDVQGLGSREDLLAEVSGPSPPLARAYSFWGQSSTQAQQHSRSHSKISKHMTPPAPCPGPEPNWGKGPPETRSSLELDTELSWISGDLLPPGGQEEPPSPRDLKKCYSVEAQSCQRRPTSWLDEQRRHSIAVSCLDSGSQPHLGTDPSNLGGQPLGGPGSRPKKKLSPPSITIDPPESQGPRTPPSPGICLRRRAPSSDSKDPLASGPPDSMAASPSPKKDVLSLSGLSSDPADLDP

| SMILES | IC50 (Human Cav 2.2 channels; [3]) [µM] | IC50 (Human Cav 2.2 channels; [4]) [µM] | CAv2.2 IC50 Ratio closed/inact. (Human Cav 2.2 channels) | IC50 (CAv1.2; [5]) [µM] | IC50 (CAv1.2; [6]) [µM] | CAv1.2 IC50 Ratio closed/inact. (CAv1.2) | IC50 (T-type calcium channel [1]) [µM] | IC50 (T-type calcium channel [2]; [7]) [µM] | IC50 (T-type calcium channel [2]; [8]) [µM] | CAv3.2 IC50 Ratio closed/inact. (T-type calcium channel [2]) |
| --- | --- | --- | --- | --- | --- | --- | --- | --- | --- | --- |
| CC(C)([C@H]1C[C@H](NC(=O)c2ccc(F)c(Cl)c2)C1)S(=O)(=O)c1cccc(OC(F)(F)F)c1 [Compound 634] | 2.21 | 0.22 | 10 | 5.92 | 0.6 | 9.9 | 1.55 | 0.7 | 0.81 | 0.9 |
| CC(C)([C@H]1C[C@H](NC(=O)c2ccnc(C(F)(F)F)n2)C1)S(=O)(=O)c1cccc(OC(F)(F)F)c1 [Compound 635] | 2 | 0.27 | 7.4 | ≥ 10 | 7.63 | 1.3 | 6.96 | 7.63 | 7.84 | 1 |
| CC(C)([C@H]1C[C@H](NC(=O)c2ccc(C(F)(F)F)cc2S(C)(=O)=O)C1)S(=O)(=O)c1cccc(OC(F)(F)F)c1 [Compound 636] | 10 | 0.38 | 26.3 | ≥ 10 | 5.24 | 1.9 | 9.97 | 4.22 | 5.44 | 0.8 |
| CC(C)([C@H]1C[C@H](NC(=O)c2ncc(C(F)(F)F)cc2S(C)(=O)=O)C1)S(=O)(=O)c1cccc(OC(F)(F)F)c1 [Compound 637] | 10 | 0.58 | 17.2 |  | ≥ 10 |  | ≥ 10 | ≥ 10 | 10 | 1 |
| CC(C)S(=O)(=O)c1cc(C(F)(F)F)cnc1C(=O)N[C@H]1C[C@H](C(C)(C)S(=O)(=O)c2cccc(OC(F)(F)F)c2)C1 [Compound 638] | 6.79 | 0.21 | 32.3 | ≥ 10 | 6.11 | 1.6 | 4.24 | 5.49 | 6.38 | 0.9 |
| CC(C)([C@H]1C[C@@H](NC(=O)c2cc(C(F)(F)F)n[nH]2)C1)S(=O)(=O)c1cccc(OC(F)(F)F)c1 [Compound 639] | 6.16 | 0.87 | 7.1 | 9.31 | 3.4 | 2.7 | 2.28 | 2.58 | 2.55 | 1 |
| CC(C)([C@H]1C[C@@H](NC(=O)c2ccc(Cl)c(F)c2)C1)S(=O)(=O)c1cccc(OC(F)(F)F)c1 [Compound 640] | 2.49 | 0.4 | 6.2 | 4.9 | 1.43 | 3.4 | 1.26 | 0.7 | 0.92 | 0.8 |
| CC(C)([C@H]1C[C@@H](NC(=O)c2ccc(F)c(Cl)c2)C1)S(=O)(=O)c1cccc(OC(F)(F)F)c1 [Compound 641] | 1.67 | 0.25 | 6.7 | 4.11 | 0.69 | 6 | 0.77 | 0.29 | 0.53 | 0.5 |
| CC(C)([C@H]1C[C@@H](NC(=O)c2ccnc(C(F)(F)F)n2)C1)S(=O)(=O)c1cccc(OC(F)(F)F)c1 [Compound 642] | 3.09 | 0.63 | 4.9 | ≥ 10 | 8.43 | 1.2 | 4.07 | 9.61 | 2.81 | 3.4 |
| CC(C)([C@H]1C[C@@H](NC(=O)c2ccc(C(F)(F)F)cc2S(C)(=O)=O)C1)S(=O)(=O)c1cccc(OC(F)(F)F)c1 [Compound 643] | 10 | 0.47 | 21.3 | ≥ 10 | 9.25 | 1.1 | 4.17 | 8.38 | 7.16 | 1.2 |
| CC(C)S(=O)(=O)c1cc(C(F)(F)F)cnc1C(=O)N[C@H]1C[C@@H](C(C)(C)S(=O)(=O)c2cccc(OC(F)(F)F)c2)C1 [Compound 645] | 8.49 | 0.24 | 35.4 | ≥ 10 | 6.8 | 1.5 | 4.69 | 9.97 | 6.08 | 1.6 |
| CC(C)([C@H]1C[C@@H](Nc2ccnc(C(F)(F)F)n2)C1)S(=O)(=O)c1cccc(OC(F)(F)F)c1 [Compound 646] | 4.23 | 1.03 | 4.1 | 8 | 2.33 | 3.4 | 4.59 | 5.27 | 3.9 | 1.4 |
| CC(C)([C@H]1C[C@H](Nc2ccnc(C(F)(F)F)n2)C1)S(=O)(=O)c1cccc(OC(F)(F)F)c1 [Compound 647] | 4.17 | 0.86 | 4.8 | 6.55 | 1.08 | 6.1 | 3.27 | 2.99 | 2.59 | 1.2 |
| CC(C)([C@H]1C[C@@H](Nc2ccnc(C(F)(F)F)n2)C1)S(=O)(=O)c1cc(F)cc(C(F)(F)F)c1 [Compound 648] | 5.05 | 0.99 | 5.1 | 8.41 | 2.28 | 3.7 | 2.81 | 5.14 | 4.1 | 1.3 |
| CC(C)([C@H]1C[C@H](Nc2ccnc(C(F)(F)F)n2)C1)S(=O)(=O)c1cc(F)cc(C(F)(F)F)c1 [Compound 649] | 4.83 | 1.19 | 4.1 | 6.39 | 1.81 | 3.5 | 3.13 | 2.4 | 2.74 | 0.9 |
| O=S(=O)(c1cccc(OC(F)(F)F)c1)[C@H]1C[C@@H](CNc2ccnc(C(F)(F)F)n2)C1 [Compound 650] | 9.9 | 1.88 | 5.3 | 9.1 | 3.51 | 2.6 | 7.29 | 2.27 | 2.69 | 0.8 |
